Like-named read-outs stand apart in the source and are kept apart here. Where a SMILES comes first, the peptide text is derived from it. [ ]: non-standard residue; d: D form. The star is where a group is joined. DOTA = O=C(O)CN1CCN(CC(=O)O)CCN(CC(=O)*)CCN(CC(=O)O)CC1; Butanoyl(4-(4-MePh)) = Cc1ccc(CCCC(=O)*)cc1; 4Amb = NCc1ccc(C(=O)O)cc1; Nle = CCCC[C@H](N)C(=O)O
Assays:
CCK2R = tested on: CCK2R; parameters: method as in PMID 10494457, PMID 10188727; conditions: cited from earlier work
[1] = tested on: human gastric cancer ascites cells; parameters: method as in PMID 10494457, PMID 10188727; conditions: mouse models inoculated with human gastric cancer ascites cells; cited from earlier work
[2] = tested on: human pancreatic cancer cells; parameters: method as in PMID 10636070, PMID 7813546; conditions: cited from earlier work
[3] = Metabolic stability analysis (radio-HPLC) in PBS at 4 °C or FBS at 37 °C; assay type: in vitro ADME
Experimental: DOTA-PP-F11N, DOTA-INER-PP-F11N-1, and DOTA-INER-PP-F11N-2 were labeled with In-111 and Lu-177 for further experiments. The detection of free In-111 after ITLC extension was defined as 0% radiolabeling efficiency. […]
To measure the labeling efficiency, ITLC was performed on glass microfiber chromatography paper impregnated with a silica gel (Agilent Technologies, Santa Clara, CA, USA) as described previously. Briefly, the ITLC sheets were developed with 10% methanol as solvent (Rf free Lu-177 = 0, Rf Lu-177-labeled compounds = 1) and measured using a radioactive scanner (AR-2000 radio-TLC […] Imaging Scanner, Bioscan, France). The sample was mixed with acetonitrile at a 1:1 (v/v) ratio, followed by centrifugation at 16,000× g for 5 min. The resulting supernatant was subsequently analyzed using HPLC with UV (220[…]) and radio detector with a Zorbax SB-C18 column (Agilent Technologies, Santa Clara, CA, USA). The flow rate was 0.8 mL/min, with the gradient mobile phase going from 90% A […] buffer (0.1% TFA in water) and 10% B buffer (0.1% TFA in acetonitrile) to 90% B buffer […] within 20 min.

A431-CCK2R (−) cells = assay: In vitro binding and internalization assay, A431-CCK2R (−) cells; assay type: cell-based; conditions: 37 °C
Experimental: (§1) In vitro binding and internalization activities were measured using a gamma counter (WIZARD 1480, Perkin-Elmer). Briefly, A431-CCK2R (+) and A431-CCK2R (−) cells were seeded on 24-well plates (1 × 10^5 cells/well, Corning, NY, USA) for 12 h. The plated cells were treated with 30 ± 10 GBq/µmol of [^177Lu]Lu-DOTA-PP-F11N, [^177Lu]Lu-DOTA-INER-PP-F11N-1, or [^177Lu]Lu-DOTA-INER-PP-F11N-2 (1 mL/well) and then incubated at 37 °C for either 1 or 4 h. After incubation, the medium was collected, and the cells were then washed with ice-cold buffer. The medium and washed PBS were collected in tube 0. The washed cells were treated with glycine–HCl buffer (0.1 M, pH 3.0) and incubated for 10 min. After incubation, cells were washed again with glycine–HCl buffer. Both glycine-HCl buffer solutions were collected in tube 1. The washed cells were treated with 1 N NaOH (1 mL/well) and incubated for 10 min for cell lysis. After incubation, the cells were washed once with 1 N NaOH. The cell lysate solution was collected in tube 2. All tubes were analyzed using a gamma counter to detect radioactivity. Data were obtained from at least three independent experiments. The respective formulae for in vitro surface binding activity and internalization were as follows:Surface binding = tube 1/(tube 0 + tube 1 + tube 2) × 100%.Internalization = tube 2/(tube 0 + tube 1 + tube 2) × 100%.

A431-CCK2R (+) cells = assay: In vitro binding and internalization assay, A431-CCK2R (+) cells; assay type: cell-based; parameters: surface binding activity / internalization activity: concentration or dose not given beside the values; conditions: for internalization activity / surface binding activity: A431-CCK2R (+) cells, 37 °C; for enhancement of internalization activity compared with PP-F11N: A431 CCK2R (+) cells, compared with conventional [^177Lu]Lu-DOTA-PP-F11N
Experimental: as §1

[4] = tested on: A431-CCK2R (−)/A431-CCK2R (+) tumor-bearing mice; assay: NanoSPECT/CT imaging of tumor-bearing mice; assay type: in vivo
Experimental: (§2) To generate A431-CCK2R (+) and A431-CCK2R (−) tumor-bearing mice models, mice (3 per group) were inoculated subcutaneously with 6 × 10^6 cells, which were injected into the inner right back leg for A431-CCK2R (+) tumors and the left back leg for A431-CCK2R (−) tumors, respectively. These xenografts were monitored until the tumor volume reached approximately 200–500 mm^3 [57]. The mice were then randomized to subgroups for further experiments. The formula for calculating tumor volume (V) is V = 4/3πr^3.
The NanoSPECT/CT® plus scanner system (Mediso Medical Imaging Systems; Budapest, Hungary) was utilized to detect in vivo tumors in the in vivo animal models. Both A431-CCK2R (+) and A431-CCK2R (−) cancer cells were inoculated subcutaneously into the inner right leg and left back leg of the mice. Radiopharmaceuticals—[^111In]In-DOTA-PP-F11N, [^111In]In-DOTA-INER-PP-F11N-1, and [^111In]In-DOTA-INER-PP-F11N-2 (1 mCi)—were injected once the mean tumor volume reached approximately 200–500 mm^3. Inhalant (1–2% isoflurane) was used to anesthetize the mice during imaging acquisition. X-ray CT images and SPECT images were taken 4, 24, and 48 h after tail-vein injection. NanoSPECT imaging was acquired using nine multi-pinhole gamma detectors with high-resolution collimators. The energy window was set at 171 and 245 KeV ± 10%, the image size was set at 256 × 256, and the field of view was set at 60 mm × 100 mm.
For Lu-177, only 208 keV photons were used for imaging, with an energy window set at 208 keV ± 10%. Although Lu-177 also emits lower abundance photons at 113 keV, the 208 keV photon provides better image quality due to reduced scatter and higher energy resolution. Therefore, the gamma camera energy windows were specifically tailored to the photon emission profiles of each radionuclide to ensure optimal detection efficiency and image accuracy.
(§3) We investigated therapeutic responses in mice receiving [^177Lu]Lu-DOTA-PP-F11N, [^177Lu]Lu-DOTA-INER-PP-F11N-1, or [^177Lu]Lu-DOTA-INER-PP-F11N-2. A431-CCK2R (+) and A431-CCK2R (−) cells were implanted subcutaneously into the right and left inner hind legs of NOD/SCID mice. Once the tumors reached a volume of 200–500 mm^3, the mice were intravenously injected with either 200 μCi of [^177Lu]Lu-DOTA-PP-F11N, [^177Lu]Lu-DOTA-INER-PP-F11N-1, [^177Lu]Lu-DOTA-INER-PP-F11N-2, or PBS (as a non-radioactive control). The NanoSPECT/CT® plus scanner system (Mediso Medical Imaging Systems; Budapest, Hungary) was utilized to detect and image tumors in the mouse models. Tumor volumes were measured twice a week for 4 weeks.

[5] = Biodistribution study in tumor-bearing mice; assay type: in vivo; conditions: mouse, intravenous, total radioactivity, 72 h after tail-vein injection, tumor-bearing mice
Experimental: as §2
(§4) Mice were sacrificed via CO2 asphyxiation 72 h after intravenous injection of 50–100 μCi (50–100 μL) of radiolabeled DOTA-PP-F11N, DOTA-INER-PP-F11N-1, or DOTA-INER-PP-F11N-2 [58]. Tumors and organs of interest were collected for further pathological examinations. The PerkinElmer 2480 Automatic Gamma Counter (PerkinElmer, Waltham, MA, USA) was used to measure radioactivity; the data are presented as the percentage injected dose per gram of tissue (%ID/g).

A431-CCK2R (+) tumors [6] = assay: Biodistribution study in tumor-bearing mice; assay type: in vivo; conditions: biodistribution studies
Experimental: as §2, §4

A431-CCK2R (+) tumors [7] = assay: Therapeutic responses to Lu-177-labeled CCK2R analogs in CCK2R-expressing cancer-bearing mice; assay type: in vivo; conditions: 200 μCi intravenously
Experimental: as §2, §3

[8] = Histopathological examinations (H&E) of mice after radiolabeled drug administration; assay type: in vivo; conditions: light microscopy
Text: To investigate the pathological alterations in tumor-bearing mice receiving radiopharmaceuticals, […] tissues, including tumors, heart, liver, and kidneys, were collected. The specimens were first fixed using 10% buffered neutral formalin and then embedded in paraffin. Sections of 3–5 μm thickness were stained with H&E and examined using light microscopy (40 × and 20 ×).

C[C@](Cc1c[nH]c2ccccc12)(NC(=O)OC1[C@H]2C[C@@H]3C[C@@H](C[C@H]1C3)C2)C(=O)NC[C@H](NC(=O)CCC(=O)O)c1ccccc1 (stereo partly shown) [CI-988]
gastrin binding to CCK2R (CCK2R): block gastrin binding to CCK2R | survival [1]: improve survival

Cc1cccc(NC(=O)N[C@@H]2N=C(c3ccccc3)c3ccccc3N(C)C2=O)c1 [L-365260]
exogenous gastrin-induced proliferation [2]: inhibited

CCCC[C@H](NC(=O)[C@H](Cc1c[nH]c2ccccc12)NC(=O)CNC(=O)[C@H](Cc1ccc(O)cc1)NC(=O)[C@H](C)NC(=O)[C@@H](CCC(=O)O)NC(=O)[C@@H](CCC(=O)O)NC(=O)[C@@H](CCC(=O)O)NC(=O)[C@@H](CCC(=O)O)NC(=O)[C@@H](CCC(=O)O)NC(=O)[C@@H](CCC(=O)O)NC(=O)c1ccc(CNC(=O)[C@H](CCCCNC(=O)CCCc2ccc(C)cc2)NC(=O)CN2CCN(CC(=O)O)CCN(CC(=O)O)CCN(CC(=O)O)CC2)cc1)C(=O)N[C@@H](CC(=O)O)C(=O)N[C@@H](Cc1ccccc1)C(N)=O [[^177Lu]Lu-DOTA-INER-PP-F11N-1, metal not drawn] ({DOTA}-K(Butanoyl(4-(4-MePh)))[4Amb][dE][dE][dE][dE][dE][dE]AYGW[Nle]DF-NH2)
metabolic stability ([3]; 4 °C PBS, 144 h after Lu-177 labeling): more than 95% | metabolic stability ([3]; Lu-177-labeled, 37 °C FBS, 144 h): > 99% | internalization activity (A431-CCK2R (−) cells; 1 h): 0.32 ± 0.10 %IA/106 cells | surface binding activity (A431-CCK2R (−) cells; 1 h): 1.08 ± 0.49 %IA/106 cells | internalization activity (A431-CCK2R (−) cells; 4 h): 0.17 ± 0.03 %IA/106 cells | internalization activity (A431-CCK2R (+) cells; 1 h): 45.32 ± 6.12% | surface binding activity (A431-CCK2R (+) cells; 1 h): 5.93 ± 1.68% | internalization activity (A431-CCK2R (+) cells; 4 h): 90.49 ± 5.65% | surface binding activity (A431-CCK2R (+) cells; 4 h): 14.57 ± 4.06% | enhancement of internalization activity compared with PP-F11N (A431-CCK2R (+) cells): 26.7% | enhancement of internalization activity compared with PP-F11N (A431-CCK2R (+) cells; listed as 177Lu-DOTA-INER-PP-F11N-1): 27% | radioactivity within the kidneys on NanoSPECT/CT ([4]; compared with Lu-177-labeled PP-F11N over the same period): significantly lower | radiotracer accumulation in the tumor region on NanoSPECT/CT ([4]; tail-vein injection, Lu-177-labeled): avid radiotracer uptake within the tumor | tissue uptake at 72 h ([5]; kidneys, read-out: radiotracer accumulation in the kidneys): 7.4 ± 2.3 %ID/g | tissue uptake at 72 h ([5]; tumor (A431-CCK2R (+)), read-out: tumor uptake of radiopharmaceuticals): 1.14 ± 0.92 %ID/g | tumor-to-kidney ratio (A431-CCK2R (+) tumors [6]): favorable | tumor volume at D23 (A431-CCK2R (+) tumors [7]): 841.33 ± 165.70 mm^3 | histopathological changes in the kidneys [8]: no significant histopathological changes | histopathological changes in the liver and heart [8]: no significant histopathological changes

— PMC12294753, “Development of INER-PP-F11N as the Peptide-Radionuclide Conjugate Drug Against CCK2 Receptor-Overexpressing Tumors” (International Journal of Molecular Sciences, 2025)
